Earlier results in article PMC9074375 (The journal of physical chemistry. B, 2022).

System: malignant cells

## FLGVLALLGYLAVRPFLPKKKQQK [NAF-1^44-67]
Malignant versus normal cells
  permeation of the plasma membrane: selectively permeates the plasma membrane of malignant but not normal cells
Peptide alone, without therapeutic cargo
  killing of cancer cells: kill cancer cells by itself, without carrying additional therapeutic cargo and without damaging normal cells
